Measured values from patent publication US20250019385A1, “SPIROCYCLIC ANNULATED 2-AMINO-3-CYANO THIOPHENES AND DERIVATIVES FOR THE TREATMENT OF CANCER” (Boehringer Ingelheim International GmbH, priority 2023, published 2025).

Legend:
[1] = molecular target: KRAS (WT)::CRAF protein::protein interaction (Homo sapiens (Human), UniProt P01116); assay: KRAS TR-FRET assay (KRAS WT::CRAF, GTP); type: binding
Experimental: (§1) This assay measures the inhibitory effect of compounds on KRAS::CRAF protein::protein interactions in the presence of GTP using Time-resolved fluorescence energy transfer (TR-FRET).
(§2) The following wildtype or mutant alleles of KRAS and CRAF protein have been used at the given concentrations:
KRAS (WT) 1-169, N-terminal 6His-tag, C-terminal avi-tag (Boehringer Ingelheim in house protein prep); final assay concentration 15 nM.
(§3) CRAF Ras binding domain, GST-tag, TEV cleavage site (Boehringer Ingelheim in house protein prep); final assay concentration 15 nM.
(§4) Test compounds dissolved in DMSO were dispensed onto assay plates (Proxiplate 384 PLUS, white, PerkinElmer; 6008289) using an Access Labcyte Workstation with the Labcyte Echo 55x. For the chosen highest assay concentration of 100 μM, 150 nl of compound solution was transferred from a 10 mM DMSO compound stock solution. A series of eleven fivefold dilutions per compound was transferred to the assay plate, compound dilutions were tested in duplicates. DMSO was added as backfill to a total volume of 150 nl.
(§5) The assay runs on a fully automated robotic system. To 150 nl of compound dilution 15 μl of a mix including the respective KRAS allele, CRAF (e.g. KRAS (G12D)::CRAF; final assay concentrations see above), GTP nucleotide (Sigma G8877; final assay concentration 10 μM), Lance Eu—W1024 labeled Streptavidin (PerkinElmer, Cat No AD0063; final assay concentration 1.5 nM) and Anti-GST surelight APC (PerkinElmer, Cat No AD0059G; final assay concentration 30 nM) in assay buffer (1×PBS, 0.1% BSA, 0.05% Tween 20) are added into columns 1-23 and 15 μL of the solution without the respective KRAS allele were added to row 24.
(§6) Plates are kept at room temperature in a darkened incubator. After 60 minutes incubation time the signal is measured in a PerkinElmer Envision HTS Multilabel Reader using the TR-FRET LANCE Ultra specs from PerkinElmer.
(§7) Each plate contains 16 wells of a negative control (diluted DMSO instead of test compound; w respective KRAS allele; column 23) and 16 wells of a positive control (diluted DMSO instead of test compound; w/o respective KRAS allele; column 24).
(§8) IC50 values were calculated and analyzed with Boehringer Ingelheim's MEGALAB 50 application using a 4 parametric logistic model.
(§9) Tables of example compounds disclosed herein contain IC50 values determined using the above assays (see Table 44).

[2] = molecular target: KRAS (G12V)::CRAF protein::protein interaction (Homo sapiens (Human), UniProt P01116, C118S/G12V); assay: KRAS TR-FRET assay (KRAS G12V::CRAF, GTP); type: binding
Experimental: as §1, §2
KRAS (G12V) 1-169, C118S, N-terminal 6His-tag, C-terminal avi-tag (Boehringer Ingelheim in house protein prep); final assay concentration 15 nM.
as §3, §4, §5, §6, §7, §8, §9

[3] = molecular target: KRAS (G12D)::CRAF protein::protein interaction (Homo sapiens (Human), UniProt P01116, G12D); assay: KRAS TR-FRET assay (KRAS G12D::CRAF, GTP); type: binding
Experimental: as §1, §2
KRAS (G12D) 1-169, N-terminal 6His-tag, C-terminal avi-tag (Xtal BioStructures, Inc.); final assay concentration 15 nM,
as §3, §4, §5, §6, §7, §8, §9

[4] = Caco-2 assay (permeability and efflux ratio); type: in vitro ADME; conditions: human; for Papp A→B at 90 min, 10 μM: Caco-2 apical to basolateral permeability, pH 7.4, read-out: Caco PappAB; for efflux ratio at 90 min, 10 μM: pH 7.4, Caco-2 efflux ratio PappBA/PappAB, read-out: Caco ER
Experimental: The assay provides information on the potential of a compound to pass the cell membrane, on the extent of oral absorption as well as on whether the compound is actively transported by uptake and/or efflux transporters. Permeability measurements across polarized, confluent Caco-2 cell monolayers grown on permeable filter supports (Corning, catalog #3391) are used. 10 μM test compound solution in assay buffer (128.13 mM NaCl, 5.36 mM KCl, 1 mM MgSO4, 1.8 mM CaCl2), 4.17 mM NaHCO3, 1.19 mM Na2HPO4, 0.41 mM NaH2PO4, 15 mM 2-[4-(2-hydroxyethyl)piperazin-1-yl]ethanesulfonic acid (HEPES), 20 mM glucose, pH 7.4) was added to the donor compartment of the cell chamber containing a monolayer of Caco-2 cells in between the donor and the receiver compartment. The receiver and donor compartments contain 0.25% bovine serum albumine (BSA) in assay buffer. Passive diffusion and/or active transport of compounds across the monolayer is measured in both apical to basolateral (a-b) and basolateral to apical (b-a) direction. a-b permeability (PappAB) represents drug absorption from the intestine into the blood and b-a permeability (PappBA) drug secretion from the blood back into the intestine via both passive permeability as well as active transport mechanisms mediated by efflux and uptake transporters that are expressed on the Caco-2 cells. After a pre-incubation of 25-30 min at 37° C., at predefined time points (0, 30, 60 and 90 min), samples were taken from the receiver and donor compartment, respectively. Concentrations of test compounds in samples were measured by HPLC/MS/MS, samples from the donor compartment were diluted 1:50 (v:v) with assay buffer, samples from receiver compartment were measured without dilution.
Apparent permeabilities in a-b (PappAB) and b-a (PappBA) directions are calculated according to the formula:
[formula] • Vrec [mL]: buffer volume in receiver compartment • Cdon [μmol/mL]: concentration of test compound in donor compartment at t=0 • ΔCrec: difference between concentrations of test compound in receiver compartment at start and end of incubation time • Δt: Incubation time • Vrec·ΔCrec/Δt [μmol/min]: Amount of compound transferred to receiver compartment per time • A [cm^2]: filter surface
Caco-2 efflux ratios (ER) are calculated as the ratio of PappBA/PappAB.

Chain of KRAS (G12D)::CRAF protein::protein interaction (P01116 other isoform, or with tags, fused parts or gaps G12D): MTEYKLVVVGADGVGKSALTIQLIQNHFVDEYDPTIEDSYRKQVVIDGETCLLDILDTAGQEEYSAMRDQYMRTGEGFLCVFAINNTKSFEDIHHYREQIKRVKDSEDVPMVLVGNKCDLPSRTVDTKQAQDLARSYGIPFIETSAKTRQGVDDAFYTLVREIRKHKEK
Chain of KRAS (G12V)::CRAF protein::protein interaction (P01116 other isoform, or with tags, fused parts or gaps G12V/C118S): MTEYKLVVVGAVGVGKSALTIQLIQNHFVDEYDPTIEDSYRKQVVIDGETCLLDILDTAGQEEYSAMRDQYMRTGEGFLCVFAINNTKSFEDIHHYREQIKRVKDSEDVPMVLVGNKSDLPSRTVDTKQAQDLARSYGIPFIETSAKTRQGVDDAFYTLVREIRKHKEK
Chain of KRAS (WT)::CRAF protein::protein interaction (P01116 other isoform, or with tags, fused parts or gaps): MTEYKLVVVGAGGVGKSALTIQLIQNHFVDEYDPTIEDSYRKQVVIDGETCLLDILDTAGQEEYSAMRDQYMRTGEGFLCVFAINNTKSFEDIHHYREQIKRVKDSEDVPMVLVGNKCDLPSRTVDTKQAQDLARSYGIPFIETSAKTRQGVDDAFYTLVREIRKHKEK

`Cc1nc2c(O[C@@H](C)[C@@H]3CCCN3C)nc(-c3onc4c3CCC[C@@]43CCCc4sc(N)c(C#N)c43)nc2n1[C@@H]1CCOC1` [I-39] showed an IC50 [1] of 52 nM, an IC50 [2] of 62 nM and an IC50 [3] of 50 nM.
`COCCn1c(=O)n([C@@H]2CCOC2)c2nc(-c3onc4c3CCC[C@@]43CCCc4sc(N)c(C#N)c43)nc(O[C@@H](C)[C@@H]3CCCN3C)c21` [I-1] showed an IC50 [1] of 160 nM, a Papp A→B at 90 min, 10 μM [4] of 18 ×10⁻⁶ cm/s and an efflux ratio at 90 min, 10 μM [4] of 3.1. For the same molecule, the IC50 [2] was 107 nM and the IC50 [3] was 145 nM.
Molecule `C[C@H](Oc1nc(-c2onc3c2CCC[C@@]32CCCc3sc(N)c(C#N)c32)nc2c1n(C)c(=O)n2C1CCOCC1)[C@@H]1CCCN1C` [I-10] has an IC50 [1] of 348 nM, an IC50 [2] of 110 nM and an IC50 [3] of 698 nM.
`C[C@H](Oc1nc(-c2onc3c2CCC[C@@]32CCCc3sc(N)c(C#N)c32)nc2c1n(C)c(=O)n2C12COC(C1)C2)[C@@H]1CCCN1C` [I-15] gave an IC50 [1] of 179 nM, an IC50 [2] of 150 nM and an IC50 [3] of 298 nM.
`C[C@H](Oc1nc(-c2noc3c2CCC[C@@]32CCCc3sc(N)c(C#N)c32)nc2c1COC[C@@]21CCOC1)[C@@H]1CCCN1C` [II-9a] gave an IC50 [1] of 581 nM, an IC50 [2] of 142 nM and an IC50 [3] of 283 nM.
With `Cc1nn([C@@H]2CCOC2)c2nc(-c3onc4c3CCC[C@@]43CCCc4sc(N)c(C#N)c43)nc(O[C@@H](C)[C@@H]3CCCN3C)c12` [I-42] the IC50 [1] was 273 nM, the IC50 [2] was 115 nM and the IC50 [3] was 263 nM.
`CO[C@@H]1C[C@@H]([C@H](C)Oc2nc(-c3onc4c3CCC[C@@]43CCCc4sc(N)c(C#N)c43)nc3c2n(C)c(=O)n3[C@@H]2CCOC2)N(C)C1` [I-3] gave an IC50 [1] of 101 nM, a Papp A→B at 90 min, 10 μM [4] of 29 ×10⁻⁶ cm/s and an efflux ratio at 90 min, 10 μM [4] of 1.9. For the same molecule, the IC50 [2] was 69 nM and the IC50 [3] was 71 nM.
Molecule `C[C@H](Oc1nc(-c2onc3c2CCC[C@@]32CCCc3sc(N)c(C#N)c32)nc2c1ncn2[C@@H]1CCOC1)[C@@H]1CCCN1C` [I-38] has an IC50 [1] of 139 nM, an IC50 [2] of 70 nM and an IC50 [3] of 45 nM.
`CCn1c(=O)n([C@@H]2CCCOC2)c2nc(-c3onc4c3CCC[C@@]43CCCc4sc(N)c(C#N)c43)nc(O[C@@H](C)[C@@H]3CCCN3C)c21` [I-30] gave an IC50 [1] of 153 nM, an efflux ratio at 90 min, 10 μM [4] of 0.7 and an IC50 [2] of 102 nM. It also gave an IC50 [3] of 163 nM.
`COCCn1c(=O)n(C)c2c(O[C@@H](C)[C@@H]3CCCN3C)nc(-c3onc4c3CCC[C@@]43CCCc4sc(N)c(C#N)c43)nc21` [I-7] gave an IC50 [1] of 1150 nM, an IC50 [2] of 451 nM and an IC50 [3] of 2260 nM.
`C[C@H](Oc1nc(-c2noc3c2CCC[C@@]32CCCc3sc(N)c(C#N)c32)nc2c1CNC[C@]21CCOC1)[C@@H]1CCCN1C` [II-15] gave an IC50 [1] of 40 nM, an IC50 [2] of 17 nM and an IC50 [3] of 18 nM.
